{"source": "paper PMC10700596", "about": "(Nature Communications, 2023)", "type_in_all_cases": "cell-based", "key": {"320 GPCRs [1]": {"target": "320 GPCRs (Homo sapiens, UniProt Q14439)"}, "320 GPCRs [2]": {"target": "320 GPCRs (Homo sapiens, UniProt P49019)"}, "320 GPCRs [3]": {"target": "320 GPCRs (Homo sapiens, UniProt Q13304)"}, "320 GPCRs [4]": {"target": "320 GPCRs (Homo sapiens, UniProt O15303)"}, "320 GPCRs [5]": {"target": "320 GPCRs (Homo sapiens, UniProt O14842)"}, "320 GPCRs [6]": {"target": "320 GPCRs (Homo sapiens, UniProt P21731)"}, "320 GPCRs [7]": {"target": "320 GPCRs (Homo sapiens, UniProt Q15760)"}, "320 GPCRs [8]": {"target": "320 GPCRs (Homo sapiens, UniProt P41968)"}, "320 GPCRs [9]": {"target": "320 GPCRs (Homo sapiens, UniProt O00270)"}, "320 GPCRs [10]": {"target": "320 GPCRs (Homo sapiens, UniProt P08173)", "sequence (P08173 whole entry)": "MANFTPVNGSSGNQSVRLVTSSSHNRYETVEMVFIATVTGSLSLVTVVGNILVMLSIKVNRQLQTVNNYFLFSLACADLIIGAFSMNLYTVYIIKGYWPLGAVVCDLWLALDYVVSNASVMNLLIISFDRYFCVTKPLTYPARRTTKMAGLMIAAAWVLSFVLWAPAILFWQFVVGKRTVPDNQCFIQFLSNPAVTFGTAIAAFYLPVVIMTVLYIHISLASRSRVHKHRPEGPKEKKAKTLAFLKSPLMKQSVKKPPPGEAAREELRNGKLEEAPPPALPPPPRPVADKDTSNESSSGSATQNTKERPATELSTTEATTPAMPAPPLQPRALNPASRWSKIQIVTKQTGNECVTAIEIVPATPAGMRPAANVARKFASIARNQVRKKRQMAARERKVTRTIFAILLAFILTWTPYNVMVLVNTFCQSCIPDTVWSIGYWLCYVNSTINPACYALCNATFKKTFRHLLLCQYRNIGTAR"}, "320 GPCRs [11]": {"target": "320 GPCRs (Homo sapiens, UniProt Q9BZJ7)"}, "320 GPCRs [12]": {"target": "320 GPCRs (Homo sapiens, UniProt Q9BZJ8)"}, "320 GPCRs [13]": {"target": "320 GPCRs (Homo sapiens, UniProt Q96P68)"}, "320 GPCRs [14]": {"target": "320 GPCRs (Homo sapiens, UniProt Q9H1C0)", "sequence (Q9H1C0 whole entry)": "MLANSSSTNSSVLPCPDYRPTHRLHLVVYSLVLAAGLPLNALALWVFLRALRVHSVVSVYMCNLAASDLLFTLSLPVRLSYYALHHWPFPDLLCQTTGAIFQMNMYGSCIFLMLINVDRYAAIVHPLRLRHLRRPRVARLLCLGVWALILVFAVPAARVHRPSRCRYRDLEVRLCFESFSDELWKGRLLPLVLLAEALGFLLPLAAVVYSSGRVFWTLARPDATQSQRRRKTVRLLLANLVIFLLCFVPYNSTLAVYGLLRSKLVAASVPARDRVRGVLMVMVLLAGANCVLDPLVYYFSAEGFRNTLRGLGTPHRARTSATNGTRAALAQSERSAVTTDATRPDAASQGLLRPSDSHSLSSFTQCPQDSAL"}, "320 GPCRs [15]": {"target": "320 GPCRs (Homo sapiens, UniProt O00155)"}, "320 GPCRs [16]": {"target": "320 GPCRs (Homo sapiens, UniProt P47211)", "sequence (P47211 whole entry)": "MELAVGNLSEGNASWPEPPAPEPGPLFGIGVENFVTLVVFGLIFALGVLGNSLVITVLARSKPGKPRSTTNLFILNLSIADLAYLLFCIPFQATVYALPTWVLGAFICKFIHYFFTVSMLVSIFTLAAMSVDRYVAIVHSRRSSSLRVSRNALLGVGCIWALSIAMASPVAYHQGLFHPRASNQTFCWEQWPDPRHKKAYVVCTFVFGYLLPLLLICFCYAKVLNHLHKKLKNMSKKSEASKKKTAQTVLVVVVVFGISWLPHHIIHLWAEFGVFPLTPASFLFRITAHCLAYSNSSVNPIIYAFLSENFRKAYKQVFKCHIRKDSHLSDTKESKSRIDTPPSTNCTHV"}, "320 GPCRs [17]": {"target": "320 GPCRs (Homo sapiens, UniProt Q13255)"}, "320 GPCRs [18]": {"target": "320 GPCRs (Homo sapiens, UniProt Q99677)"}, "320 GPCRs [19]": {"target": "320 GPCRs (Homo sapiens, UniProt Q8NFN8)"}, "320 GPCRs [20]": {"target": "320 GPCRs (Homo sapiens, UniProt P43119)"}, "320 GPCRs [21]": {"target": "320 GPCRs (Homo sapiens, UniProt O00574)", "sequence (O00574 whole entry)": "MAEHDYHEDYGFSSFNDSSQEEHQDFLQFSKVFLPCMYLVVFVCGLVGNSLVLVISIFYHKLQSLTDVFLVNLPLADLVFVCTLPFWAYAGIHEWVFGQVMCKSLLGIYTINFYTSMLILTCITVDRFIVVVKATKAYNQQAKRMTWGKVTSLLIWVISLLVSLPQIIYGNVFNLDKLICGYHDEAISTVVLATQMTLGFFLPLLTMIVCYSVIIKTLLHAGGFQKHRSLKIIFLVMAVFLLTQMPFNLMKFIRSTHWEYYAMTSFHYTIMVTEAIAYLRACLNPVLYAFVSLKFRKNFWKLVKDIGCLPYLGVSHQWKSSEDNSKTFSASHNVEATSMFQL"}, "320 GPCRs [22]": {"target": "320 GPCRs (Homo sapiens, UniProt P41595)"}, "320 GPCRs [23]": {"target": "320 GPCRs (Homo sapiens, UniProt Q8IZF4)"}, "320 GPCRs [24]": {"target": "320 GPCRs (Homo sapiens, UniProt Q8NFJ6)", "sequence (Q8NFJ6 whole entry)": "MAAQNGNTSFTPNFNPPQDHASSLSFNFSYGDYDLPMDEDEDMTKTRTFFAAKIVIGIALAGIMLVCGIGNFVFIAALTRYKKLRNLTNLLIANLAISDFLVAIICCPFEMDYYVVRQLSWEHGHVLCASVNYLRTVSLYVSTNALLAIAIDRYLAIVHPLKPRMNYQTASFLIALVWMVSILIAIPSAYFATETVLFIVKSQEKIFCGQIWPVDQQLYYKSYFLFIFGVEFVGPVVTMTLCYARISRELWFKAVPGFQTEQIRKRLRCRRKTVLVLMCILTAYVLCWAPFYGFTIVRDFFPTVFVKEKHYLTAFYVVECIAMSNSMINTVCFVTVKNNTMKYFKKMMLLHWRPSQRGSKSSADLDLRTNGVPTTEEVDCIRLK"}, "320 GPCRs [25]": {"target": "320 GPCRs (Homo sapiens, UniProt P25021)"}, "320 GPCRs [26]": {"target": "320 GPCRs (Homo sapiens, UniProt Q03431)", "sequence (Q03431 27-593)": "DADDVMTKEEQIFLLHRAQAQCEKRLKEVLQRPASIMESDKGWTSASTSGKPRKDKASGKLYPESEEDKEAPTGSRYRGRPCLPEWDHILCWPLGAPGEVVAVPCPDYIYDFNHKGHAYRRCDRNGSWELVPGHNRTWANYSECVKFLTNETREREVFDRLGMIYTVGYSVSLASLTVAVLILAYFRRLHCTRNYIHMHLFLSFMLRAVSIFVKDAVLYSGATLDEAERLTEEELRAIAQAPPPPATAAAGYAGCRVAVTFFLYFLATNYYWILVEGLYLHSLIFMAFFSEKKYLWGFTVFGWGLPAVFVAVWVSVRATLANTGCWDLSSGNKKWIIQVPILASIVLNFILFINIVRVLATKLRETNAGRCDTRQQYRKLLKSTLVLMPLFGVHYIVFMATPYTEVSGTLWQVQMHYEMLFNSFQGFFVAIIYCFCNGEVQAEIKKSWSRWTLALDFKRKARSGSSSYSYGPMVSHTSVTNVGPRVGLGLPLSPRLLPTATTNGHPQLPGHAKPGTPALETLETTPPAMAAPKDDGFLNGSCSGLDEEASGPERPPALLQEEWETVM"}, "320 GPCRs [27]": {"target": "320 GPCRs (Homo sapiens, UniProt P22888)"}, "320 GPCRs [28]": {"target": "320 GPCRs (Homo sapiens, UniProt P32238)"}, "320 GPCRs [29]": {"target": "320 GPCRs (Homo sapiens, UniProt O00254)"}, "320 GPCRs [30]": {"target": "320 GPCRs (Homo sapiens, UniProt Q02643)", "sequence (Q02643 23-423)": "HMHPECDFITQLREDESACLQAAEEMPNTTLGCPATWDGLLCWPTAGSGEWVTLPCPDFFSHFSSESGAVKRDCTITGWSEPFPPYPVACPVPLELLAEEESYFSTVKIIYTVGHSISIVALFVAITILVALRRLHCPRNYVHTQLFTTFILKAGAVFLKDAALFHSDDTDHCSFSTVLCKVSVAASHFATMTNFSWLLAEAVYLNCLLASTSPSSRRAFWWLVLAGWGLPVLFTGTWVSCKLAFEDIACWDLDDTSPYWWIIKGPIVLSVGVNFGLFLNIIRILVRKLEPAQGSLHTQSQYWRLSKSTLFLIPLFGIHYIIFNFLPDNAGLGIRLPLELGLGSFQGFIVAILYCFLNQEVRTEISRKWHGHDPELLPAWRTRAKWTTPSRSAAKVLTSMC"}, "320 GPCRs [31]": {"target": "320 GPCRs (Homo sapiens, UniProt P24530)"}, "320 GPCRs [32]": {"target": "320 GPCRs (Homo sapiens, UniProt P32248)"}, "320 GPCRs [33]": {"target": "320 GPCRs (Homo sapiens, UniProt P48039)"}, "320 GPCRs [34]": {"target": "320 GPCRs (Homo sapiens, UniProt P14416)"}, "320 GPCRs [35]": {"target": "320 GPCRs (Homo sapiens, UniProt P34972)", "sequence (P34972 whole entry)": "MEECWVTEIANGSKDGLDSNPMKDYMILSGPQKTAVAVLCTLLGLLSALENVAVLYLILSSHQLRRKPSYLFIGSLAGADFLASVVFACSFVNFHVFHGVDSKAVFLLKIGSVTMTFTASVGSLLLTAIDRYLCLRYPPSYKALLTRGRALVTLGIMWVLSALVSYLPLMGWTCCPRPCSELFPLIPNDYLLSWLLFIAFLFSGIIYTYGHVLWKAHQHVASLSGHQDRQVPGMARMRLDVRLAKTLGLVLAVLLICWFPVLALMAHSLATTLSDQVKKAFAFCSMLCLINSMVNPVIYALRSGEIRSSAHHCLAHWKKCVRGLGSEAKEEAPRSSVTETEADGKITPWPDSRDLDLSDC"}, "320 GPCRs [36]": {"target": "320 GPCRs (Homo sapiens, UniProt P21453)"}, "320 GPCRs [37]": {"target": "320 GPCRs (Homo sapiens, UniProt Q96P69)"}, "320 GPCRs [38]": {"target": "320 GPCRs (Homo sapiens, UniProt Q8TDV2)", "sequence (Q8TDV2 whole entry)": "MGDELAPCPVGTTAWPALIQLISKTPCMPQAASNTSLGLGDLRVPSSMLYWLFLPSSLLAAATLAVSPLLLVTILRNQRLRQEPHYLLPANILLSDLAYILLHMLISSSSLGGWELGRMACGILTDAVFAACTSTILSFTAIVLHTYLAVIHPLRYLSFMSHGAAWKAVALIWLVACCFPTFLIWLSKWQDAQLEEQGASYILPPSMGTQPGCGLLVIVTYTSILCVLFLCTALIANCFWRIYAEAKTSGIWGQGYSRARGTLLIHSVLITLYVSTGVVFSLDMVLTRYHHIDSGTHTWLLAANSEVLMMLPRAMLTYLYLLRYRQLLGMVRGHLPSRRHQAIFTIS"}, "320 GPCRs [39]": {"target": "320 GPCRs (Homo sapiens, UniProt P41594)", "sequence (P41594 21-1212)": "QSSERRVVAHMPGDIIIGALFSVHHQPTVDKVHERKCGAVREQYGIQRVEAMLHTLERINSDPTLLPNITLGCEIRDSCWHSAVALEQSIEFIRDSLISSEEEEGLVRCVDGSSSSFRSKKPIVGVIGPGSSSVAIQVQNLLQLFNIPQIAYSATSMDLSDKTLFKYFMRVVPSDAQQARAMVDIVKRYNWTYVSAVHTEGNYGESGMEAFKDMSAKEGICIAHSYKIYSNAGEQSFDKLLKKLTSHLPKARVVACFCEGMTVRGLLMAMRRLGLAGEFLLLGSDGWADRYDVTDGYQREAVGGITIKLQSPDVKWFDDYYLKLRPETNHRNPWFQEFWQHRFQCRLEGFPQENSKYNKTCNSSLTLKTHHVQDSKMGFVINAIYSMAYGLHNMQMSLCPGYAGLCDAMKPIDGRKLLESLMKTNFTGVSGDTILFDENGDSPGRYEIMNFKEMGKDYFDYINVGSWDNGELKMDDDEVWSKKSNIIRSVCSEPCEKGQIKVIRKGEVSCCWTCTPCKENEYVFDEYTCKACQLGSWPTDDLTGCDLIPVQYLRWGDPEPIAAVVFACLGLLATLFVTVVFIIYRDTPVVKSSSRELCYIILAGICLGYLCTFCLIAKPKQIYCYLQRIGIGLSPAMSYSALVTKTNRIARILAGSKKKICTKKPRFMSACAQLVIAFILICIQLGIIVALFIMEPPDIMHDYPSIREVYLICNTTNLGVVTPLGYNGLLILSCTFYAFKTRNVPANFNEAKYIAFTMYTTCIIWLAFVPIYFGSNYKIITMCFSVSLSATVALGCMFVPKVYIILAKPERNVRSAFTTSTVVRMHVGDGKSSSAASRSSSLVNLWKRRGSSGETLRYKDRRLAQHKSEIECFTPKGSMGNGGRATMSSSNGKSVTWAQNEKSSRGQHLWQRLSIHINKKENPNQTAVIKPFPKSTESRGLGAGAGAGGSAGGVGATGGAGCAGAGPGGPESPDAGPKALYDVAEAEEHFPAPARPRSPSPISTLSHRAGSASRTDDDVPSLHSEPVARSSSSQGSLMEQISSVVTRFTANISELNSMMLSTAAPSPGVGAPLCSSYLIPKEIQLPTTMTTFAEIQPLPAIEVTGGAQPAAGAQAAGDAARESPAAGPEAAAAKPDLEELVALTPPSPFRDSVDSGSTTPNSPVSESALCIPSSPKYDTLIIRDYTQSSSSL"}, "320 GPCRs [40]": {"target": "320 GPCRs (Homo sapiens, UniProt Q96RI9)"}, "320 GPCRs [41]": {"target": "320 GPCRs (Homo sapiens, UniProt Q9UJ42)"}, "320 GPCRs [42]": {"target": "320 GPCRs (Homo sapiens, UniProt Q9HBX9)"}, "320 GPCRs [43]": {"target": "320 GPCRs (Homo sapiens, UniProt P23945)"}}, "note": "Several values for one entry are separate records, joined by “and”; a condition that tells them apart may be missing. Identical values can stand only once."}
{"compound": "O=C(O)C1CCC2(CC1)CC(Nc1ncnc3[nH]c4c(F)cccc4c13)C2", "note": "(stereo not shown) [Compound 74, OC(=O)C1CCC2(CC(C2)NC=3N=CN=C4NC=5C(F)=CC=CC5C34)CC1]", "values": [{"measurement": "RLU (Fold over Basal)", "setting": "320 GPCRs [1]", "result": "0.8 Fold over Basal and 1.3 Fold over Basal and 1 Fold over Basal"}, {"measurement": "RLU (Fold over Basal)", "setting": "320 GPCRs [2]", "result": "0.9 Fold over Basal and 0.7 Fold over Basal and 1 Fold over Basal"}, {"measurement": "RLU (Fold over Basal)", "setting": "320 GPCRs [3]", "result": "0.4 Fold over Basal and 0.6 Fold over Basal and 0.5 Fold over Basal"}, {"measurement": "RLU (Fold over Basal)", "setting": "320 GPCRs [4]", "result": "1.6 Fold over Basal and 0.8 Fold over Basal and 1 Fold over Basal"}, {"measurement": "RLU (Fold over Basal)", "setting": "320 GPCRs [5]", "result": "1.6 Fold over Basal and 0.9 Fold over Basal"}, {"measurement": "RLU (Fold over Basal)", "setting": "320 GPCRs [6]", "result": "1.2 Fold over Basal and 1.1 Fold over Basal and 0.7 Fold over Basal"}, {"measurement": "RLU (Fold over Basal)", "setting": "320 GPCRs [7]", "result": "1 Fold over Basal and 1.3 Fold over Basal and 0.9 Fold over Basal and 1.8 Fold over Basal"}, {"measurement": "RLU (Fold over Basal)", "setting": "320 GPCRs [8]", "result": "0.5 Fold over Basal and 1 Fold over Basal and 0.7 Fold over Basal and 0.8 Fold over Basal"}, {"measurement": "RLU (Fold over Basal)", "setting": "320 GPCRs [9]", "result": "1.8 Fold over Basal and 1.3 Fold over Basal"}, {"measurement": "RLU (Fold over Basal)", "setting": "320 GPCRs [10]", "result": "1.1 Fold over Basal and 1 Fold over Basal and 1.4 Fold over Basal and 1.2 Fold over Basal"}, {"measurement": "RLU (Fold over Basal)", "setting": "320 GPCRs [11]", "result": "0.6 Fold over Basal and 0.5 Fold over Basal and 0.8 Fold over Basal"}, {"measurement": "RLU (Fold over Basal)", "setting": "320 GPCRs [12]", "result": "0.8 Fold over Basal and 1.4 Fold over Basal and 1 Fold over Basal and 1.1 Fold over Basal"}, {"measurement": "RLU (Fold over Basal)", "setting": "320 GPCRs [13]", "result": 0.3, "unit": "Fold over Basal"}, {"measurement": "RLU (Fold over Basal)", "setting": "320 GPCRs [14]", "result": "0.9 Fold over Basal and 0.8 Fold over Basal and 1.3 Fold over Basal"}, {"measurement": "RLU (Fold over Basal)", "setting": "320 GPCRs [15]", "result": "1.1 Fold over Basal and 1 Fold over Basal and 0.7 Fold over Basal and 0.6 Fold over Basal"}, {"measurement": "RLU (Fold over Basal)", "setting": "320 GPCRs [16]", "result": "0.8 Fold over Basal and 0.7 Fold over Basal and 0.9 Fold over Basal and 0.6 Fold over Basal"}, {"measurement": "RLU (Fold over Basal)", "setting": "320 GPCRs [17]", "result": "0.9 Fold over Basal and 1.1 Fold over Basal and 0.8 Fold over Basal"}, {"measurement": "RLU (Fold over Basal)", "setting": "320 GPCRs [18]", "result": "0.9 Fold over Basal and 0.7 Fold over Basal and 0.8 Fold over Basal"}, {"measurement": "RLU (Fold over Basal)", "setting": "320 GPCRs [19]", "result": "1.2 Fold over Basal and 1 Fold over Basal and 0.6 Fold over Basal"}, {"measurement": "RLU (Fold over Basal)", "setting": "320 GPCRs [20]", "result": "0.9 Fold over Basal and 0.6 Fold over Basal and 0.7 Fold over Basal and 1 Fold over Basal"}, {"measurement": "RLU (Fold over Basal)", "setting": "320 GPCRs [21]", "result": "0.7 Fold over Basal and 1.2 Fold over Basal and 0.9 Fold over Basal and 0.6 Fold over Basal"}, {"measurement": "RLU (Fold over Basal)", "setting": "320 GPCRs [22]", "result": "0.8 Fold over Basal and 0.9 Fold over Basal and 0.7 Fold over Basal and 1 Fold over Basal"}, {"measurement": "RLU (Fold over Basal)", "setting": "320 GPCRs [23]", "result": "0.8 Fold over Basal and 1.1 Fold over Basal and 1.2 Fold over Basal"}, {"measurement": "RLU (Fold over Basal)", "setting": "320 GPCRs [24]", "result": "0.7 Fold over Basal and 1.4 Fold over Basal and 1.3 Fold over Basal and 1.1 Fold over Basal"}, {"measurement": "RLU (Fold over Basal)", "setting": "320 GPCRs [25]", "result": "1 Fold over Basal and 1.4 Fold over Basal"}, {"measurement": "RLU (Fold over Basal)", "setting": "320 GPCRs [26]", "result": "1.2 Fold over Basal and 1.1 Fold over Basal and 1.4 Fold over Basal"}, {"measurement": "RLU (Fold over Basal)", "setting": "320 GPCRs [27]", "result": "1.7 Fold over Basal and 1.8 Fold over Basal and 1.4 Fold over Basal"}, {"measurement": "RLU (Fold over Basal)", "setting": "320 GPCRs [28]", "result": "1.2 Fold over Basal and 0.7 Fold over Basal and 0.6 Fold over Basal and 1 Fold over Basal"}, {"measurement": "RLU (Fold over Basal)", "setting": "320 GPCRs [29]", "result": "2 Fold over Basal and 1.8 Fold over Basal and 3 Fold over Basal and 2.4 Fold over Basal"}, {"measurement": "RLU (Fold over Basal)", "setting": "320 GPCRs [30]", "result": "0.7 Fold over Basal and 0.6 Fold over Basal and 0.8 Fold over Basal"}, {"measurement": "RLU (Fold over Basal)", "setting": "320 GPCRs [31]", "result": "1.2 Fold over Basal and 0.6 Fold over Basal and 0.8 Fold over Basal and 0.9 Fold over Basal"}, {"measurement": "RLU (Fold over Basal)", "setting": "320 GPCRs [32]", "result": "1 Fold over Basal and 0.9 Fold over Basal"}, {"measurement": "RLU (Fold over Basal)", "setting": "320 GPCRs [33]", "result": "0.9 Fold over Basal and 0.8 Fold over Basal"}, {"measurement": "RLU (Fold over Basal)", "setting": "320 GPCRs [34]", "result": "0.6 Fold over Basal and 0.5 Fold over Basal"}, {"measurement": "RLU (Fold over Basal)", "setting": "320 GPCRs [35]", "result": "2.1 Fold over Basal and 1.3 Fold over Basal and 1.7 Fold over Basal and 1.5 Fold over Basal"}, {"measurement": "RLU (Fold over Basal)", "setting": "320 GPCRs [36]", "result": "1 Fold over Basal and 1.6 Fold over Basal and 1.5 Fold over Basal"}, {"measurement": "RLU (Fold over Basal)", "setting": "320 GPCRs [37]", "result": "1 Fold over Basal and 0.5 Fold over Basal and 0.9 Fold over Basal"}, {"measurement": "RLU (Fold over Basal)", "setting": "320 GPCRs [38]", "result": "0.8 Fold over Basal and 0.5 Fold over Basal and 1 Fold over Basal"}, {"measurement": "RLU (Fold over Basal)", "setting": "320 GPCRs [39]", "result": "0.8 Fold over Basal and 1.3 Fold over Basal and 0.9 Fold over Basal and 0.7 Fold over Basal"}, {"measurement": "RLU (Fold over Basal)", "setting": "320 GPCRs [40]", "result": "0.9 Fold over Basal and 1.1 Fold over Basal and 1.2 Fold over Basal"}, {"measurement": "RLU (Fold over Basal)", "setting": "320 GPCRs [41]", "result": "4 Fold over Basal and 2 Fold over Basal and 3.4 Fold over Basal and 3.2 Fold over Basal"}, {"measurement": "RLU (Fold over Basal)", "setting": "320 GPCRs [42]", "result": "0.7 Fold over Basal and 0.9 Fold over Basal and 0.5 Fold over Basal"}, {"measurement": "RLU (Fold over Basal)", "setting": "320 GPCRs [43]", "result": "1 Fold over Basal and 0.6 Fold over Basal"}]}
